± gives the expanded uncertainty stated by the source.
Assay: xn = mol fraction of the nth substance listed
Conditions: for mass density: 101 kPa, Liquid, Pycnometric method

CCCC(=O)O [butanoic acid] + O
Conditions	mass density, 293.15 K [kg/m3]	mass density, 298.15 K [kg/m3]	mass density, 303.15 K [kg/m3]	mass density, 308.15 K [kg/m3]	surface tension liquid-gas, 293.15 K [mN/m]	surface tension liquid-gas, 298.15 K [mN/m]	surface tension liquid-gas, 303.15 K [mN/m]	surface tension liquid-gas, 308.15 K [mN/m]
x1 = 0.00475	–	–	–	–	50.5 ± 1.1	50.01 ± 1.1	49.13 ± 1.1	48.56 ± 1.1
x1 = 0.00655	–	–	–	–	45.88 ± 1	45.32 ± 1	44.7 ± 1	44.05 ± 1
x1 = 0.00903	–	–	–	–	41.59 ± 0.98	40.95 ± 0.97	40.38 ± 0.97	39.72 ± 0.96
x1 = 0.00998	–	–	–	–	40.32 ± 0.97	39.69 ± 0.96	39.11 ± 0.95	38.47 ± 0.94
x1 = 0.01274	–	–	–	–	37.41 ± 0.92	36.84 ± 0.92	36.24 ± 0.91	35.68 ± 0.9
x1 = 0.01432	–	–	–	–	36.11 ± 0.91	35.6 ± 0.9	34.99 ± 0.89	34.5 ± 0.88
x1 = 0.01655	1002.55 ± 0.42	1000.29 ± 0.45	998.03 ± 0.46	995.86 ± 0.46	34.6 ± 0.88	34.16 ± 0.88	33.58 ± 0.87	33.16 ± 0.86
x1 = 0.02141	1003.38 ± 0.43	1001.03 ± 0.46	998.67 ± 0.47	996.41 ± 0.48	–	–	–	–
x1 = 0.03346	1004.38 ± 0.45	1001.93 ± 0.47	999.47 ± 0.48	997.11 ± 0.5	29.28 ± 0.81	28.91 ± 0.81	28.59 ± 0.8	28.45 ± 0.8
x1 = 0.03727	1004.49 ± 0.46	1001.94 ± 0.48	999.38 ± 0.49	996.93 ± 0.49	–	–	–	–
x1 = 0.04522	1004.3 ± 0.48	1001.66 ± 0.49	999.01 ± 0.5	996.46 ± 0.51	28.48 ± 0.8	28.33 ± 0.8	28.14 ± 0.79	27.95 ± 0.79
x1 = 0.04995	1004.13 ± 0.49	1001.39 ± 0.5	998.64 ± 0.51	995.99 ± 0.51	–	–	–	–
x1 = 0.05825	1003.61 ± 0.5	1000.77 ± 0.51	997.92 ± 0.52	995.18 ± 0.52	28.46 ± 0.8	28.38 ± 0.8	28.1 ± 0.79	27.87 ± 0.79
x1 = 0.06959	1002.83 ± 0.52	999.9 ± 0.52	996.96 ± 0.53	994.11 ± 0.56	–	–	–	–
x1 = 0.07723	1002.34 ± 0.55	999.13 ± 0.56	995.79 ± 0.56	992.85 ± 0.51	–	–	–	–
x1 = 0.08723	–	–	–	–	28.61 ± 0.8	28.3 ± 0.8	27.92 ± 0.79	27.72 ± 0.79
x1 = 0.09004	1001.61 ± 0.54	998.48 ± 0.55	995.24 ± 0.57	991.96 ± 0.57	–	–	–	–
x1 = 0.09948	1001.12 ± 0.55	997.91 ± 0.56	994.7 ± 0.56	991.51 ± 0.58	28.52 ± 0.8	28.24 ± 0.8	27.88 ± 0.79	27.67 ± 0.79
x1 = 0.1147	–	–	–	–	28.39 ± 0.8	28.17 ± 0.79	27.84 ± 0.79	27.63 ± 0.79
x1 = 0.1172	1000.27 ± 0.56	996.95 ± 0.57	993.63 ± 0.57	990.42 ± 0.58	–	–	–	–
x1 = 0.131	999.59 ± 0.57	996.11 ± 0.59	992.63 ± 0.59	989.31 ± 0.58	–	–	–	–
x1 = 0.134	–	–	–	–	28.24 ± 0.8	28.1 ± 0.79	27.82 ± 0.79	27.58 ± 0.79
x1 = 0.1428	–	–	–	–	28.19 ± 0.8	28.07 ± 0.79	27.81 ± 0.79	27.56 ± 0.79
x1 = 0.1443	998.82 ± 0.59	995.31 ± 0.59	991.8 ± 0.6	988.32 ± 0.59	–	–	–	–
x1 = 0.1767	997.16 ± 0.59	993.56 ± 0.6	989.96 ± 0.6	986.45 ± 0.61	28.21 ± 0.8	28.01 ± 0.79	27.79 ± 0.79	27.47 ± 0.79

CCCCC(=O)O [pentanoic acid] + O
Conditions	mass density, 293.15 K [kg/m3]	mass density, 298.15 K [kg/m3]	mass density, 303.15 K [kg/m3]	mass density, 308.15 K [kg/m3]	surface tension liquid-gas, 293.15 K [mN/m]	surface tension liquid-gas, 298.15 K [mN/m]	surface tension liquid-gas, 303.15 K [mN/m]	surface tension liquid-gas, 308.15 K [mN/m]
x1 = 0.00015	998.24 ± 0.34	997.08 ± 0.37	995.67 ± 0.39	994.07 ± 0.41	–	–	–	–
x1 = 0.00016	–	–	–	–	63.92 ± 1.3	64.63 ± 1.3	63.6 ± 1.3	63.01 ± 1.3
x1 = 0.00043	998.28 ± 0.34	997.12 ± 0.37	995.68 ± 0.4	994.07 ± 0.41	–	–	–	–
x1 = 0.00048	–	–	–	–	57.45 ± 1.2	57.4 ± 1.2	56.82 ± 1.2	56.37 ± 1.2
x1 = 0.00056	–	–	–	–	56.19 ± 1.2	56.09 ± 1.2	55.49 ± 1.2	55.07 ± 1.2
x1 = 0.0006	998.31 ± 0.34	997.14 ± 0.37	995.72 ± 0.4	994.09 ± 0.42	–	–	–	–
x1 = 0.00083	–	–	–	–	52.45 ± 1.1	52.12 ± 1.1	51.63 ± 1.1	51.27 ± 1.1
x1 = 0.00099	–	–	–	–	50.54 ± 1.1	50.05 ± 1.1	49.71 ± 1.1	49.38 ± 1.1
x1 = 0.00106	998.36 ± 0.35	997.18 ± 0.37	995.77 ± 0.4	994.1 ± 0.42	–	–	–	–
x1 = 0.00121	–	–	–	–	48.25 ± 1.1	47.66 ± 1.1	47.43 ± 1.1	47.13 ± 1.1
x1 = 0.00143	998.42 ± 0.35	997.22 ± 0.37	995.77 ± 0.4	994.12 ± 0.42	–	–	–	–
x1 = 0.00148	998.43 ± 0.35	997.23 ± 0.37	995.79 ± 0.4	994.12 ± 0.42	–	–	–	–
x1 = 0.0015	–	–	–	–	45.82 ± 1	45.32 ± 1	44.93 ± 1	44.64 ± 1
x1 = 0.00173	–	–	–	–	44.26 ± 1	43.88 ± 1	43.28 ± 1	43 ± 1
x1 = 0.0018	998.47 ± 0.35	997.25 ± 0.37	995.81 ± 0.4	994.13 ± 0.42	–	–	–	–
x1 = 0.00195	998.49 ± 0.35	997.28 ± 0.37	995.82 ± 0.4	994.15 ± 0.42	–	–	–	–
x1 = 0.00196	–	–	–	–	42.94 ± 1	42.57 ± 1	41.86 ± 0.99	41.59 ± 0.98
x1 = 0.00205	998.5 ± 0.35	997.29 ± 0.37	995.83 ± 0.4	994.14 ± 0.42	–	–	–	–
x1 = 0.00219	–	–	–	–	41.78 ± 0.99	41.26 ± 0.98	40.63 ± 0.97	40.36 ± 0.97
x1 = 0.00222	998.52 ± 0.35	997.29 ± 0.37	995.83 ± 0.4	994.16 ± 0.42	–	–	–	–
x1 = 0.00228	998.54 ± 0.35	997.31 ± 0.37	995.84 ± 0.4	994.16 ± 0.42	–	–	–	–
x1 = 0.0025	998.56 ± 0.35	997.33 ± 0.37	995.86 ± 0.4	994.18 ± 0.42	–	–	–	–
x1 = 0.00259	–	–	–	–	39.97 ± 0.96	39.16 ± 0.95	38.8 ± 0.94	38.54 ± 0.94
x1 = 0.00271	998.58 ± 0.35	997.35 ± 0.37	995.88 ± 0.4	994.19 ± 0.42	–	–	–	–
x1 = 0.00283	–	–	–	–	38.97 ± 0.95	38.18 ± 0.94	37.81 ± 0.93	37.57 ± 0.93
x1 = 0.00289	998.62 ± 0.35	997.37 ± 0.37	995.89 ± 0.4	994.19 ± 0.42	–	–	–	–
x1 = 0.00299	–	–	–	–	38.32 ± 0.94	37.6 ± 0.93	37.18 ± 0.92	36.94 ± 0.92
x1 = 0.00305	998.63 ± 0.35	997.4 ± 0.37	995.91 ± 0.4	994.21 ± 0.42	–	–	–	–
x1 = 0.00326	–	–	–	–	37.25 ± 0.92	36.51 ± 0.91	36.1 ± 0.91	35.9 ± 0.9
x1 = 0.00349	–	–	–	–	36.38 ± 0.91	35.61 ± 0.9	35.15 ± 0.89	34.97 ± 0.89
x1 = 0.0035	998.69 ± 0.35	997.43 ± 0.37	995.94 ± 0.4	994.23 ± 0.42	–	–	–	–

From the NIST ThermoML archive (doi:10.1021/je1002829)
